# Test results as given in patent US8957025B2, “Enkephalin analogues” (Pfizer Inc., priority 2011, dated 2015).
# Key:
# mu opioid receptor = mu opioid receptor (UniProt P35372); test: Mu-opioid receptor agonist activity; type: cell-based
# Experimental: The ability of agonists to cause recruitment of beta-arrestin to the mu opioid receptor was measured using DiscoveRx PathHunter technology. A pro-linked tagged mu-opioid receptor and an EA-tagged beta-arrestin were expressed in U2OS cells and beta-arrestin recruitment measured following the methodology in McGuinness et al., 2009 (J Biomol Screen 14:49-58, Characterizing cannabinoid CB2 receptor ligands using DiscoverRx PathHunter beta-arrestin assay—McGuinness D., Malikzay A., Visconti R., Lin K., Bayne M., Monsma F., Lunn C A.)
# The ability of mu opioid receptor agonists to inhibit forskolin stimulated cAMP production was measured in CHO cells recombinantly expressing the mu opioid receptor, using alphascreen technology as described in Nickolls et al., 2005, with the additional inclusion of 50 uM forskolin in the assay buffer. (J Pharmacol Exp Ther 313; 1281-88, Functional selectivity of melanocortin 4 receptor peptide and non-peptide agonists: Evidence for ligand specific conformational states. Nickolls S A., Fleck B., Hoare S., Maki R.)
# Functional activity at the mu-opioid receptors was determined using the electrically stimulated guinea pig isolated myenteric plexus preparation following the methodology of Hughes, J.; Kosterlitz, H. W. and Leslie, F. M. Br. J. Pharmacol. 1975, 53, 371.
# Dofetilide binding = conditions: probe dofetilide
# MDR = MDR Papp permeability; type: in vitro ADME; conditions: not told
# [1] = Lipophilicity (LogD), shake-flask octanol/buffer pH 7.4; type: physicochemical; conditions: octanol / 0.1M phosphate buffer pH 7.4
# Excerpt: LogD octanol (pH 7.4) is a measure of lipophilicity that accounts for both hydrophobic and hydrogen-bonding interactions of a given substrate. This assay is based on shake-flask methodology, performed in a fully automated manner in a 0.1M phosphate buffer pH7.4-octanol system.
# After addition of the test substance in DMSO stock solution to the mixture and vigorous agitation followed by separation of the octanol and buffer layers by centrifugation, duplicate samples are removed from each layer and diluted prior to analysis by LC-MS/MS. Peak area is corrected for dilutions and the following equation used to calculate the logD (pH 7.4): […]
# The duplicate logD values must be with 0.4 log units of each other and the positive controls must be within 0.2 log units of the known logD value.
# [2] = Human liver microsomal stability assay (HLM); type: in vitro ADME; conditions: pooled liver microsomes, pH 7.4, 1 μM substrate, 37° C.
# Excerpt: In vitro measurement of substrate metabolism can be determined using the microsomal cytochrome P450 mono-oxygenase system. This is a useful application in ranking clearance of a number of compounds by Phase I (including cytochrome P450) metabolism prior to in vivo assessment Measurement of intrinsic clearance using these methods also allows a comparison of species difference to be made to assist with translation of pharmacokinetic parameters from preclinical to clinical study.
# Human and rat Liver microsomal assays were performed using pooled microsomes from the Pfizer Global Supply (BD Gentest™). Chemical reagents were purchased from commercial sources (Sigma-Aldrich) and drug entities synthesised at Pfizer Global Research. Incubation mixtures contained 50 mM phosphate buffer pH 7.4, 5 mM MgCl2, 5 mM isocitric acid and 1 unit/ml isocitric dehydrogenase. The microsomes were defrosted at room temperature and sufficient volumes added to give a final concentration of 0.5 nmol cytochrome P450/ml. Following the addition of 1 μM of substrate, the incubation was pre-incubated at 37° C. for 5 minutes. The reaction was then initiated by the addition of 1 mM NADP and incubation aliquots are taken over a 1 h time course. The reaction was subsequently stopped by addition of acetonitrile cooled on ice. […]
# The intrinsic clearance in rat or human liver microsomes is calculated from: […]
structure (smiles),measurement,setting,value
"Cc1cc(O)cc(C)c1C[C@H](N)C(=O)N[C@H](C)C(=O)NC[C@@H](N)Cc1ccccc1 [Example 1, 2,6-Dimethyl-L-tyrosyl-N-[(2S)-2-amino-3-phenylpropyl]-D-alaninamide]",IC50,mu opioid receptor,9.8 nM
same,IC50,Dofetilide binding,> 22000 nM
same,Papp,MDR,0.7 ×10⁻⁶ cm/s
same,logD,[1],0.05
same,microsomal CLint at 1 μM,[2],8.4 µL/min/mg
"Cc1cc(O)cc(C)c1C[C@H](N)C(=O)N[C@H](C)C(=O)NC[C@H](N)Cc1ccccc1 [Example 2, 2,6-Dimethyl-L-tyrosyl-N-[(2R)-2-amino-3-phenylpropyl]-D-alaninamide]",IC50,mu opioid receptor,6 nM
same,IC50,Dofetilide binding,> 22000 nM
same,Papp,MDR,0.6 ×10⁻⁶ cm/s
same,logD,[1],-0.2
same,microsomal CLint at 1 μM,[2],< 8 µL/min/mg
